Experimental data from patent US11339170B1, “Spiropyrrolidine derived antiviral agents” (priority 2021, dated 2022).
Read-outs that look alike come from different tables or passages of the source.

Columns and labels:
[1] = target: SARS-CoV-2 3CL-protease (Severe acute respiratory syndrome coronavirus 2 (2019-nCoV) (SARS-CoV-2), UniProt P0DTD1); assay: SARS-CoV-2 3C-like (3CL) protease fluorescence assay (FRET); assay type: biochemical
[2] = tested on: 229E human corona virus (hCoV); assay: 229E live virus assay (CPE, ATPlite readout) in MRC-5 cells; assay type: cell-based, hCoV-229E; details: Human coronavirus 229E, MRC5, 144 h, read-out: 229E EC50
[3] = recombinant SARS-CoV-2 3CL-protease 10 nM, 30 min preincubation, duplicate, read-out: FRET IC50

Row | SMILES | IC50 ([1]; read-out: FRET IC50, recombinant SARS-CoV-2 3CL-protease 10 nM, 30 min preincubation, duplicate) [nM] | IC50 [1, 3] [nM] | IC50 [1] [nM] | EC50 [2] [nM] | EC50 ([2]; MRC-5 cells, MOI 0.05, 6 days at 34° C., ATPlite, duplicate) [nM]
1 | CC(C)C[C@@H](C(=O)N1C[C@]2(C[C@H]1C#N)C(=O)Nc1ccccc12)N(C)C(=O)C(=O)Nc1ccc(F)cc1F [Compound 1] | < 100 |  |  |  | 
2 | CC(C)C[C@@H](C(=O)N1C[C@]2(C[C@H]1C#N)C(=O)Nc1ccccc12)N(C)C(=O)C(=O)Nc1ccc(F)cc1F [Compound 2] |  | < 100 |  |  | 
3 | CC(C)C[C@@H](C(=O)N1C[C@]2(C[C@H]1C#N)C(=O)Nc1ccccc12)N(C)C(=O)C(=O)Nc1ccccc1 [Compound 3] |  |  | < 100 | < 100 | 
4 | CC(C)C[C@@H](C(=O)N1C[C@]2(C[C@H]1C#N)C(=O)Nc1ccccc12)N(C)C(=O)C(=O)Nc1ccc(F)cc1 [Compound 4] |  |  | < 100 | < 100 | 
5 | CC(C)C[C@@H](C(=O)N1C[C@]2(C[C@H]1C#N)C(=O)Nc1ccccc12)N(C)C(=O)C(=O)Nc1ccc(F)c(F)c1 [Compound 5] |  |  | 100 to 1000 | < 100 | 
6 | CC(C)C[C@@H](C(=O)N1C[C@]2(C[C@H]1C#N)C(=O)Nc1ccccc12)N(C)C(=O)C(=O)Nc1cc(F)c(F)c(F)c1 [Compound 6] |  |  | 100 to 1000 | < 100 | 
7 | CC(C)C[C@@H](C(=O)N1C[C@]2(C[C@H]1C#N)C(=O)Nc1ccccc12)N(C)C(=O)C(=O)Nc1ccc2ccccc2c1 [Compound 7] |  |  | < 100 | < 100 | 
8 | CC(C)C[C@@H](C(=O)N1C[C@]2(C[C@H]1C#N)C(=O)Nc1ccccc12)N(C)C(=O)C(=O)Nc1cccc2ccccc12 [Compound 8] |  |  | < 100 | < 100 | 
9 | CC(C)C[C@@H](C(=O)N1C[C@]2(C[C@H]1C#N)C(=O)Nc1ccccc12)N(C)C(=O)C(=O)N(C)c1ccccc1 [Compound 9] |  |  | < 100 | < 100 | 
10 | CC(C)C[C@@H](C(=O)N1C[C@]2(C[C@H]1C#N)C(=O)Nc1ccccc12)N(C)C(=O)C(=O)N(C)c1ccc(F)cc1 [Compound 10] |  |  | < 100 | < 100 | 
11 | CC(C)C[C@@H](C(=O)N1C[C@]2(C[C@H]1C#N)C(=O)Nc1ccccc12)N(C)C(=O)C(=O)Nc1ccc2cccnc2c1 [Compound 11] |  |  | < 100 | < 100 | 
12 | CC(C)C[C@@H](C(=O)N1C[C@]2(C[C@H]1C#N)C(=O)Nc1ccccc12)N(C)C(=O)C(=O)Nc1ccc2cnccc2c1 [Compound 12] |  |  | < 100 | < 100 | 
13 | CC(C)C[C@@H](C(=O)N1C[C@]2(C[C@H]1C#N)C(=O)Nc1ccccc12)N(C)C(=O)C(=O)Nc1ccc2ccccc2n1 [Compound 13] |  |  | < 100 | < 100 | 
14 | CC(C)C[C@@H](C(=O)N1C[C@]2(C[C@H]1C#N)C(=O)Nc1ccccc12)N(C)C(=O)C(=O)Nc1ccc2ncccc2c1 [Compound 14] |  |  | < 100 | < 100 | 
15 | CC(C)C[C@@H](C(=O)N1C[C@]2(C[C@H]1C#N)C(=O)Nc1ccccc12)N(C)C(=O)C(=O)Nc1cnc2ccccc2c1 [Compound 15] |  |  | < 100 | < 100 | 
16 | CC(C)C[C@@H](C(=O)N1C[C@]2(C[C@H]1C#N)C(=O)Nc1ccccc12)N(C)C(=O)C(=O)Nc1nn(C)c2ccccc12 [Compound 16] |  |  | < 100 | < 100 | 
17 | CC(C)C[C@@H](C(=O)N1C[C@]2(C[C@H]1C#N)C(=O)Nc1ccccc12)N(C)C(=O)C(=O)Nc1nc2ccccc2s1 [Compound 17] |  |  | < 100 | < 100 | 
18 | CC(C)C[C@@H](C(=O)N1C[C@]2(C[C@H]1C#N)C(=O)Nc1ccccc12)N(C)C(=O)C(=O)Nc1nc2ccccc2n1C [Compound 18] |  |  | < 100 | < 100 | 
19 | CC(C)C[C@@H](C(=O)N1C[C@]2(C[C@H]1C#N)C(=O)Nc1ccccc12)N(C)C(=O)C(=O)Nc1n[nH]c2ccccc12 [Compound 19] |  | < 100 |  |  | < 100
20 | CN(C(=O)C(=O)Nc1ccc(F)cc1F)[C@@H](CC(C)(C)C)C(=O)N1C[C@]2(C[C@H]1C#N)C(=O)Nc1ccccc12 [Compound 20] |  |  | < 100 | < 100 | 
21 | CN(C(=O)C(=O)Nc1ccc(F)cc1)[C@@H](CC(C)(C)C)C(=O)N1C[C@]2(C[C@H]1C#N)C(=O)Nc1ccccc12 [Compound 21] |  |  | < 100 | < 100 | 
22 | [2H]C([2H])([2H])N(C(=O)C(=O)Nc1ccc(F)cc1)[C@@H](CC(C)(C)C)C(=O)N1C[C@]2(C[C@H]1C#N)C(=O)Nc1ccccc12 [Compound 22] |  |  | < 100 | < 100 | 
23 | [2H]C([2H])([2H])N(C(=O)C(=O)Nc1ccc(F)cc1F)[C@@H](CC(C)(C)C)C(=O)N1C[C@]2(C[C@H]1C#N)C(=O)Nc1ccccc12 [Compound 23] |  |  | < 100 | < 100 | 
24 | [2H]C([2H])([2H])N(C(=O)C(=O)Nc1ccc(F)c(F)c1)[C@@H](CC(C)(C)C)C(=O)N1C[C@]2(C[C@H]1C#N)C(=O)Nc1ccccc12 [Compound 24] |  |  | < 100 | < 100 | 

Row | SMILES | IC50 ([1]; read-out: FRET IC50, recombinant SARS-CoV-2 3CL-protease 10 nM, 30 min preincubation, duplicate) [nM] | IC50 [1, 3] [nM] | IC50 [1] [nM] | EC50 [2] [nM] | EC50 ([2]; MRC-5 cells, MOI 0.05, 6 days at 34° C., ATPlite, duplicate) [nM]
25 | [2H]C([2H])([2H])N(C(=O)C(=O)NC1CCC1)[C@@H](CC(C)(C)C)C(=O)N1C[C@]2(C[C@H]1C#N)C(=O)Nc1ccccc12 [Compound 25] |  |  | < 100 | < 100 | 
26 | [2H]C([2H])([2H])N(C(=O)C(=O)NC1CCCCC1)[C@@H](CC(C)(C)C)C(=O)N1C[C@]2(C[C@H]1C#N)C(=O)Nc1ccccc12 [Compound 26] |  |  | < 100 | < 100 | 
27 | [2H]C([2H])([2H])N(C(=O)C(=O)Nc1ccccn1)[C@@H](CC(C)(C)C)C(=O)N1C[C@]2(C[C@H]1C#N)C(=O)Nc1ccccc12 [Compound 27] |  |  | 100 to 1000 | < 100 | 
28 | [2H]C([2H])([2H])N(C(=O)C(=O)N1CCCCC1)[C@@H](CC(C)(C)C)C(=O)N1C[C@]2(C[C@H]1C#N)C(=O)Nc1ccccc12 [Compound 29] |  |  | 100 to 1000 | < 100 | 
29 | [2H]C([2H])([2H])N(C(=O)C(=O)Nc1ccc(F)cc1)[C@@H](Cc1ccccc1)C(=O)N1C[C@]2(C[C@H]1C#N)C(=O)Nc1ccccc12 [Compound 30] |  |  | < 100 | < 100 | 
30 | [2H]C([2H])([2H])N(C(=O)C(=O)NC1CCCC1)[C@@H](CC(C)(C)C)C(=O)N1C[C@]2(C[C@H]1C#N)C(=O)Nc1ccccc12 [Compound 31] |  |  | < 100 | < 100 | 
31 | [2H]C([2H])([2H])N(C(=O)C(=O)Nc1ccccc1)[C@@H](Cc1ccccc1)C(=O)N1C[C@]2(C[C@H]1C#N)C(=O)Nc1ccccc12 [Compound 32] |  |  | < 100 | < 100 | 
32 | [2H]C([2H])([2H])N(C(=O)C(=O)Nc1ccccn1)[C@@H](Cc1ccccc1)C(=O)N1C[C@]2(C[C@H]1C#N)C(=O)Nc1ccccc12 [Compound 33] |  |  | < 100 | < 100 | 
33 | [2H]C([2H])([2H])N(C(=O)C(=O)NC1CC1)[C@@H](Cc1ccccc1)C(=O)N1C[C@]2(C[C@H]1C#N)C(=O)Nc1ccccc12 [Compound 34] |  |  | < 100 | < 100 | 
34 | [2H]C([2H])([2H])N(C(=O)C(=O)Nc1c(C)cccc1C)[C@@H](CC(C)(C)C)C(=O)N1C[C@]2(C[C@H]1C#N)C(=O)Nc1ccccc12 [Compound 35] |  |  | < 100 | < 100 | 
35 | [2H]C([2H])([2H])N(C(=O)C(=O)N(C)c1ccccc1)[C@@H](CC(C)(C)C)C(=O)N1C[C@]2(C[C@H]1C#N)C(=O)Nc1ccccc12 [Compound 36] |  |  | > 1000 | 100 to 1000 | 
36 | [2H]C([2H])([2H])N(C(=O)C(=O)Nc1ccc2ncccc2c1)[C@@H](CC(C)(C)C)C(=O)N1C[C@]2(C[C@H]1C#N)C(=O)Nc1ccccc12 [Compound 37] |  |  | < 100 | < 100 | 
37 | [2H]C([2H])([2H])N(C(=O)C(=O)Nc1ccc(F)c(F)c1)[C@@H](CC1CC1)C(=O)N1C[C@]2(C[C@H]1C#N)C(=O)Nc1ccccc12 [Compound 38] |  |  | < 100 | < 100 | 
38 | [2H]C([2H])([2H])N(C(=O)C(=O)Nc1ccc(F)cc1)[C@@H](CC1CC1)C(=O)N1C[C@]2(C[C@H]1C#N)C(=O)Nc1ccccc12 [Compound 39] |  |  | < 100 | < 100 | 
39 | CC(C)C[C@@H](C(=O)N1C[C@]2(C[C@H]1C#N)C(=O)Nc1ccccc12)N(C)C(=O)C(=O)NC1CC1 [Compound 40] |  |  | < 100 | < 100 | 
40 | CC(C)C[C@@H](C(=O)N1C[C@]2(C[C@H]1C#N)C(=O)Nc1ccccc12)N(C)C(=O)C(=O)c1ccc(F)cc1 [Compound 41] |  |  | < 100 | < 100 | 
41 | CC(C)C[C@@H](C(=O)N1C[C@]2(C[C@H]1C#N)C(=O)Nc1ccccc12)N(C)C(=O)C(=O)N(C)C1CC1 [Compound 42] |  |  | < 100 | < 100 | 
42 | CC(C)C[C@@H](C(=O)N1C[C@]2(C[C@H]1C#N)C(=O)Nc1ccccc12)N(C)C(=O)C(=O)C1CC1 [Compound 43] |  |  | < 100 | < 100 | 
43 | CC(C)C[C@@H](C(=O)N1C[C@]2(C[C@H]1C#N)C(=O)Nc1ccccc12)N(C)C(=O)C(=O)NC(C)(C)C [Compound 44] |  |  | < 100 | < 100 | 
44 | CN(C(=O)C(=O)Nc1ccc(F)c(F)c1)[C@@H](Cc1ccccc1)C(=O)N1C[C@]2(C[C@H]1C#N)C(=O)Nc1ccccc12 [Compound 45] |  |  | < 100 | < 100 | 
45 | [2H]C([2H])([2H])N(C(=O)C(=O)Nc1ccc(F)c(F)c1)[C@@H](Cc1ccc(F)cc1)C(=O)N1C[C@]2(C[C@H]1C#N)C(=O)Nc1ccccc12 [Compound 46] |  |  | < 100 | < 100 | 
46 | [2H]C([2H])([2H])N(C(=O)C(=O)Nc1ccc(F)c(F)c1)[C@@H](CCCC)C(=O)N1C[C@]2(C[C@H]1C#N)C(=O)Nc1ccccc12 [Compound 47] |  |  | < 100 | < 100 | 
47 | [2H]C([2H])([2H])N(C(=O)C(=O)C(C)(C)C)[C@@H](CCCC)C(=O)N1C[C@]2(C[C@H]1C#N)C(=O)Nc1ccccc12 [Compound 48] |  |  | < 100 | < 100 | 
48 | CC(C)(C)C[C@H](NC(=O)C(=O)NC(C)(C)C)C(=O)N1C[C@]2(C[C@H]1C#N)C(=O)Nc1ccccc12 [Compound 69] |  |  | < 100 |  | 
